Earlier results in patent publication US8535946B2, “Biomarker to measure drug efficacy in enteropathic disease” (The Board of Trustees of the Leland Stanford Junior …, priority 2007, dated 2013).

Conditions: humans

For `Cc1ncc2n1-c1ccc(Cl)cc1C(c1ccccc1F)=NC2` [midazolam], the “dose excreted unchanged in the urine” value is listed as “less than 1%”.
